From patent US9212186B2, “Bicyclic pyrazole LRRK2 small molecule inhibitors” (Genentech, Inc., priority 2012, dated 2015)

Biological target: LRRK2 G2019S (Homo sapiens (Human), UniProt Q5S007, G2019S)
Assay: In Vitro LRRK2 Lanthascreen Binding Assay
Procedure: In Vitro LRRK2 Lanthascreen Binding Assay
This assay was used to determine a compound's potency in inhibiting activity of LRRK2 by determining, Kiapp, IC50, or percent inhibition values. In 384 well proxiplates F black, shallow well plates LRRK2, Eu-anti-GST-antibody, Alexa Fluor® Kinase tracer 236 and test compound were incubated together.
Binding of the Alexa Fluor® “tracer” to a kinase is detected by addition of a Eu-labeled anti-GST antibody. Binding of the tracer and antibody to a kinase results in a high degree of FRET, whereas displacement of the tracer with a kinase inhibitor results in a loss of FRET.
Assay conditions and materials used were as follows:
Final Assay Conditions: • GST-LRRK2 G2019S 10 nM
Eu-anti-GST-antibody 2 nM • Kinase tracer 236 8.5 nM • Kinase reaction time: 1 hour • Temperature: ambient • Total volume: 15 μl • DMSO 1%
384 well proxiplates F black shallow well Perkin Elmer cat #6008260
Eu-labeled anti-GST antibody Invitrogen cat # PV5594
Alexa Fluor® Kinase tracer 236 Invitrogen cat #PV5592 • TRIS-HCl Sigma cat # T3253 • EGTA Sigma cat # E3889 • Brij-35: Sigma cat # B4184 (30% w/v) • DMSO: Sigma cat # D8418 • MgCl2 Sigma cat # M9272
Reaction Buffer: H2O/50 mM Tris, pH 7.4/10 mM MgCl2/1 mM EGTA/0.01% Brij 35
Compound Plate Preparation:
Serially dilute test compounds (10 mM stock) 1:3.16 (20 ul+43.2 ul) in 100% DMSO. 12 pt curve. Dilute each concentration 1:33.3 (3 ul+97 ul) in reaction buffer. Stamp 5 ul to assay plate. Final top test concentration 100 uM
Total and Blank Preparation:
In Reaction Buffer, 5 ul of DMSO (3%) was added to total and blank wells and 5 ul of Eu-labeled anti-GST antibody (6 nM) was added to blank wells. Add 5 ul LRRK2 (30 nM)/Eu-labeled anti-GST antibody (6 nM) mix to compound and total wells.
Add 5 ul kinase tracer (25.5 nM) to all wells. Incubate plates at room temperature for 1 hour on a plate shaker (gentle shaking). Read on Perkin Elmer EnVision reader HTRF protocol
Calculate ratio: (665/620)*10000. Subtract mean background values from all data points. Calculate % of control for each test value. Plot % of control vs Compound concentration. Calculate Ki Value (xlfit curve fitting—Morrison equation). Results expressed as a Ki in μM. Equation for Ki: Y=V0*(1−((x+Ki*(1+S/Km)+Et)/(2*Et)−(((x+Ki*(1+S/Km)+Et)^2−(4*Et*x))^0.5)/(2*Et)))
Tracer concentration (S)=8.5 nM

LRRK2 G2019S, sequence (Q5S007 whole entry G2019S): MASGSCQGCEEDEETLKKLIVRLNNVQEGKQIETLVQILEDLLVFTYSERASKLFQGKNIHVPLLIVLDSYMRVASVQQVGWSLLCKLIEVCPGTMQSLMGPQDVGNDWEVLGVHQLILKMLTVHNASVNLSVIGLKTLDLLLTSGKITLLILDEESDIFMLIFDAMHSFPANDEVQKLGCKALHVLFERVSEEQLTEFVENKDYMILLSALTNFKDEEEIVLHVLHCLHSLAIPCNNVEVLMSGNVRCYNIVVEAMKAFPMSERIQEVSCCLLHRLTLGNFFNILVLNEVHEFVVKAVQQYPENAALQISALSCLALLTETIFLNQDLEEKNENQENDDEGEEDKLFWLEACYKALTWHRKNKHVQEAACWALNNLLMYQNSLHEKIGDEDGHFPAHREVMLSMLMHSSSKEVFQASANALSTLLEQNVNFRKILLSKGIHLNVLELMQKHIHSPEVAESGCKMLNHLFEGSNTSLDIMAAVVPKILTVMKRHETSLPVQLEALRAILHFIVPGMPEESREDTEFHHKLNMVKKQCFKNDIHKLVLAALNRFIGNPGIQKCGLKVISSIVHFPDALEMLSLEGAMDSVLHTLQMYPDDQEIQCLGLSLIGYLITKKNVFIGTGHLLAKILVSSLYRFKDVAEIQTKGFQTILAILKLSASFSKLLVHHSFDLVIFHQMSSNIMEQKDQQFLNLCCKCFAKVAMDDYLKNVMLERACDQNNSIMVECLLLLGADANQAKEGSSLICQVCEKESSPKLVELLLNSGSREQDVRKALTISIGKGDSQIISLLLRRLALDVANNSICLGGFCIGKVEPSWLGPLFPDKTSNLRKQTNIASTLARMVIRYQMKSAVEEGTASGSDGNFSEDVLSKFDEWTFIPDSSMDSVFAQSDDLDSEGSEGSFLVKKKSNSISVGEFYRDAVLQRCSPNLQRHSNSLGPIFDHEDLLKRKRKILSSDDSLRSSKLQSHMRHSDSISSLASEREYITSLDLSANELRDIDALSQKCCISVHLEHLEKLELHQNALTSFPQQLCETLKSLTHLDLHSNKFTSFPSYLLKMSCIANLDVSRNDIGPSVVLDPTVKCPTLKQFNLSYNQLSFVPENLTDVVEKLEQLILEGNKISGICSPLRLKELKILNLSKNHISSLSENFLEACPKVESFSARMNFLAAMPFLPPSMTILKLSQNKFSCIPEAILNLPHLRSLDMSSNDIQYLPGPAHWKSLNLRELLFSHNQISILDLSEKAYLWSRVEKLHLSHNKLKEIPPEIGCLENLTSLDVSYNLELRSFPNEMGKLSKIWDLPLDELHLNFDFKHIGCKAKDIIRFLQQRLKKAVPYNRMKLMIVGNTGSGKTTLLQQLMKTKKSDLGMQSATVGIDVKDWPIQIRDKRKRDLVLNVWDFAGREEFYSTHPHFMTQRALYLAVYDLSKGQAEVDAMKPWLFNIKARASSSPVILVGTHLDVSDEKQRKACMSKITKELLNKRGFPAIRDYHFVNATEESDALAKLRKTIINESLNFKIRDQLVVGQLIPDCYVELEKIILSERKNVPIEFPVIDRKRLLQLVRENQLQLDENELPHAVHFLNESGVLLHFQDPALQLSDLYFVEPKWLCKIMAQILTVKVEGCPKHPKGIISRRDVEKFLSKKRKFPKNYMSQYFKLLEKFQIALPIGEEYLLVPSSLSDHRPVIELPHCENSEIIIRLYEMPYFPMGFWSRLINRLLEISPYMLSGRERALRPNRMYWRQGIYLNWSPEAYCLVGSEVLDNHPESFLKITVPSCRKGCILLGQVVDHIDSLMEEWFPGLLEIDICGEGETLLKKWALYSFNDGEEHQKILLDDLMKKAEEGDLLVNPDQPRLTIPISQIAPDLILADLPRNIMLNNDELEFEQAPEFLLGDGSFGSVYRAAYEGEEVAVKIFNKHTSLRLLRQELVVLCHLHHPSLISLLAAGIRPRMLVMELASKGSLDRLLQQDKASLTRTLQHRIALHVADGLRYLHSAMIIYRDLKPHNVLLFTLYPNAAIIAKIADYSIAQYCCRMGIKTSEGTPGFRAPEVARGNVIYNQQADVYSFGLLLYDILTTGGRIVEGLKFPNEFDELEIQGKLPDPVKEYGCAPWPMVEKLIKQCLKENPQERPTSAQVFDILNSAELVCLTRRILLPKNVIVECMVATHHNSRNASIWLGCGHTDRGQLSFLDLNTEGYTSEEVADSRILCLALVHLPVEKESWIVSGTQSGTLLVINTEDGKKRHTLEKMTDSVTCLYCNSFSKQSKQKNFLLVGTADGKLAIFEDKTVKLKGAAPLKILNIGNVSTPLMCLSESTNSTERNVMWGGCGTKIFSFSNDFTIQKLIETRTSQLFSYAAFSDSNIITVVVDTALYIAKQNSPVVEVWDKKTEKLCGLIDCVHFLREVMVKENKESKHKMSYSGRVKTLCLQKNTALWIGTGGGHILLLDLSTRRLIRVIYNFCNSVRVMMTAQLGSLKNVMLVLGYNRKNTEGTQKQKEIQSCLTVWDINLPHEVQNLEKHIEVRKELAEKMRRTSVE

| SMILES | Ki [nM] |
| --- | --- |
| CNc1nc(Nc2cnn3c2C(C)OCC3(C)C)ncc1C(F)(F)F (single isomer, unassigned) [Example 12, N4-methyl-5-(trifluoromethyl)-N2-(4,7,7-trimethyl-6,7-dihydro-4H-pyrazolo[5,1-c][1,4]oxazin-3-yl)pyrimidine-2,4-diamine] | 2.6 |
| CCNc1nc(Nc2cnn3c2C(C)OCC3)ncc1C(F)(F)F (single isomer, unassigned) [Example 14, N4-ethyl-N2-(4-methyl-6,7-dihydro-4H-pyrazolo[5,1-c][1,4]oxazin-3-yl)-5-(trifluoromethyl)pyrimidine-2,4-diamine] | 1.2 |
| CNc1nc(Nc2cnn3c2C(C)OCC3)ncc1C(F)(F)F (single isomer, unassigned) [Example 16, N4-methyl-N2-(4-methyl-6,7-dihydro-4H-pyrazolo[5,1-c][1,4]oxazin-3-yl)-5-(trifluoromethyl)pyrimidine-2,4-diamine] | 3 |
| CNc1nc(Nc2cnn3c2C(C)OC(C)C3)ncc1C(F)(F)F (single isomer, unassigned) [Example 19, N2-(4,6-dimethyl-6,7-dihydro-4H-pyrazolo[5,1-c][1,4]oxazin-3-yl)-N4-methyl-5-(trifluoromethyl)pyrimidine-2,4-diamine] | 61.3 |
| CNc1nc(Nc2cnn3c2C(C)OC(C)C3)ncc1C(F)(F)F (single isomer, unassigned) [Example 20, N2-(4,6-dimethyl-6,7-dihydro-4H-pyrazolo[5,1-c][1,4]oxazin-3-yl)-N4-methyl-5-(trifluoromethyl)pyrimidine-2,4-diamine] | 5.7 |
| CNc1nc(Nc2cnn3c2C(C)OC(C)C3)ncc1C(F)(F)F (single isomer, unassigned) [Example 21, N2-(4,6-dimethyl-6,7-dihydro-4H-pyrazolo[5,1-c][1,4]oxazin-3-yl)-N4-methyl-5-(trifluoromethyl)pyrimidine-2,4-diamine] | 390 |
| CNc1nc(Nc2cnn3c2CCCC3)ncc1C(F)(F)F [Example 3, N4-methyl-N2-(4,5,6,7-tetrahydropyrazolo[1,5-a]pyridin-3-yl)-5-(trifluoromethyl)pyrimidine-2,4-diamine] | 7.5 |
| CNc1nc(Nc2cnn3c2[C@H](C)N(C)CC3)ncc1C(F)(F)F [Example 5, (S)-N2-(4,5-dimethyl-4,5,6,7-tetrahydropyrazolo[1,5-a]pyrazin-3-yl)-N4-methyl-5-(trifluoromethyl)pyrimidine-2,4-diamine] | 20 |
| CNc1nc(Nc2cnn3c2[C@@H](C)N(C)CC3)ncc1C(F)(F)F [Example 6, (R)-N2-(4,5-dimethyl-4,5,6,7-tetrahydropyrazolo[1,5-a]pyrazin-3-yl)-N4-methyl-5-(trifluoromethyl)pyrimidine-2,4-diamine] | 184 |
| CCNc1nc(Nc2cnn3c2[C@H](C)N(C)CC3)ncc1C(F)(F)F [Example 7, (S)-N2-(4,5-dimethyl-4,5,6,7-tetrahydropyrazolo[1,5-a]pyrazin-3-yl)-N4-ethyl-5-(trifluoromethyl)pyrimidine-2,4-diamine] | 9.5 |
| CCNc1nc(Nc2cnn3c2[C@@H](C)N(C)CC3)ncc1C(F)(F)F [Example 8, (R)-N2-(4,5-dimethyl-4,5,6,7-tetrahydropyrazolo[1,5-a]pyrazin-3-yl)-N4-ethyl-5-(trifluoromethyl)pyrimidine-2,4-diamine] | 144 |
| C[C@H]1c2c(Nc3ncc(C(F)(F)F)c(NC4CC4)n3)cnn2CCN1C [Example 9, (S)-N4-cyclopropyl-N2-(4,5-dimethyl-4,5,6,7-tetrahydropyrazolo[1,5-a]pyrazin-3-yl)-5-(trifluoromethyl)pyrimidine-2,4-diamine] | 4.9 |
| C[C@@H]1c2c(Nc3ncc(C(F)(F)F)c(NC4CC4)n3)cnn2CCN1C [Example 10, (R)-N4-cyclopropyl-N2-(4,5-dimethyl-4,5,6,7-tetrahydropyrazolo[1,5-a]pyrazin-3-yl)-5-(trifluoromethyl)pyrimidine-2,4-diamine] | 44.4 |
| CNc1nc(Nc2cnn3c2C(C)OCC3(C)C)ncc1C(F)(F)F (stereo not shown) [Example 11, N4-methyl-5-(trifluoromethyl)-N2-(4,7,7-trimethyl-6,7-dihydro-4H-pyrazolo[5,1-c][1,4]oxazin-3-yl)pyrimidine-2,4-diamine] | 212 |
| CCNc1nc(Nc2cnn3c2C(C)OCC3)ncc1C(F)(F)F (stereo not shown) [Example 13, N4-ethyl-N2-(4-methyl-6,7-dihydro-4H-pyrazolo[5,1-c][1,4]oxazin-3-yl)-5-(trifluoromethyl)pyrimidine-2,4-diamine] | 47.7 |
| CNc1nc(Nc2cnn3c2C(C)OCC3)ncc1C(F)(F)F (stereo not shown) [Example 15, N4-methyl-N2-(4-methyl-6,7-dihydro-4H-pyrazolo[5,1-c][1,4]oxazin-3-yl)-5-(trifluoromethyl)pyrimidine-2,4-diamine] | 279 |
| CNc1nc(Nc2cnn3c2COCC3)ncc1C(F)(F)F [Example 17, N2-(6,7-dihydro-4H-pyrazolo[5,1-c][1,4]oxazin-3-yl)-N4-methyl-5-(trifluoromethyl)pyrimidine-2,4-diamine] | 2.3 |
| CNc1nc(Nc2cnn3c2C(C)OC(C)C3)ncc1C(F)(F)F (stereo not shown) [Example 18, N2-(4,6-dimethyl-6,7-dihydro-4H-pyrazolo[5,1-c][1,4]oxazin-3-yl)-N4-methyl-5-(trifluoromethyl)pyrimidine-2,4-diamine] | 1.8 |
| CNc1nc(Nc2cnn3c2COC(C)(C)C3)ncc1C(F)(F)F [Example 22, N2-(6,6-dimethyl-6,7-dihydro-4H-pyrazolo[5,1-c][1,4]oxazin-3-yl)-N4-methyl-5-(trifluoromethyl)pyrimidine-2,4-diamine] | 0.9 |
| CCNc1nc(Nc2cnn3c2COC(C)(C)C3)ncc1C(F)(F)F [Example 23, N2-(6,6-dimethyl-6,7-dihydro-4H-pyrazolo[5,1-c][1,4]oxazin-3-yl)-N4-ethyl-5-(trifluoromethyl)pyrimidine-2,4-diamine] | 0.3 |
| CNc1nc(Nc2cnn3c2CCC3)ncc1C(F)(F)F [Example 24, N2-(5,6-dihydro-4H-pyrrolo[1,2-b]pyrazol-3-yl)-N4-methyl-5-(trifluoromethyl)pyrimidine-2,4-diamine] | 0.6 |
| CNc1nc(Nc2cnn3c2N(C)CC3)ncc1C(F)(F)F [Example 25, N4-methyl-N2-(1-methyl-2,3-dihydro-1H-imidazo[1,2-b]pyrazol-7-yl)-5-(trifluoromethyl)pyrimidine-2,4-diamine] | 31.2 |
| CNc1nc(Nc2cnn3c2CN(C)CC3)ncc1C(F)(F)F [Example 26, N^4-methyl-N^2-(5-methyl-4,5,6,7-tetrahydropyrazolo[1,5-a]pyrazin-3-yl)-5-(trifluoromethyl)pyrimidine-2,4-diamine] | 33.5 |
| CNc1nc(Nc2cnn3c2C2(COC2)OCC3)ncc1C(F)(F)F [Example 27, N^2-(6′7′-dihydrospiro[oxetane-3,4′-pyrazolo[5,1-c][1,4]oxazine]-3-yl)-N^4-methyl-5-(trifluoromethyl)pyrimidine-2,4-diamine] | 819 |
| CNc1nc(Nc2cc3n(n2)CCOC3)ncc1C(F)(F)F [Example 30, N^2-(6,7-dihydro-4H-pyrazolo[5,1-c][1,4]oxazin-2-yl)-N^4-methyl-5-(trifluoromethyl)pyrimidine-2,4-diamine] | 10.9 |
